Molecules are shown by their SMILES.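 96-well plates; 48 h exposure; 5 concentrations. Endpoints by linear interpolation between flanking doses. Not reached: highest tested concentration assigned. Here, GI50 denotes the concentration required for 50% inhibition of growth. TGI: total growth inhibition.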

For this test, the system named is MDA-MB-468 breast. Kind of test: NCI-60 cell line screen, 48 h.
Consider `CN(C)c1ccc(C(=O)c2ccc(N(C)C)c(N)c2)cc1N`, for which the GI50 is 0.781 µM and the TGI was found to be 4.72 µM.
For `NC(=O)C(Br)CBr` (centres undefined), in that order: 1.46 µM and 4.35 µM.
For the compound `CCOCC(=O)N[C@H]1CCc2cc(OC)c(OC)c(OC)c2-c2ccc(SC)c(=O)cc21`, the GI50 is under 0.01 µM and the TGI was over 100 µM.
For `O=CN1N=C(c2ccc(Nc3ccnc4cc(Cl)ccc34)cc2)CC1c1ccccc1` (centres undefined), in that order: 0.975 µM and 3.15 µM.
For `Nc1ccc(N=Nc2ccccc2)c(N)n1`, in that order: 16.2 µM and 60.9 µM.
On to `Nc1ccccc1NC(=O)CCCCCCC(=O)Nc1ccc2c(c1)/C(=C/c1ccc[nH]1)C(=O)N2`, for which the GI50 is 1.83 µM and the TGI was over 100 µM.
For `CN(C)C(=S)NN=C(c1ccccn1)c1ccccn1`, in that order: under 0.01 µM and 24 µM.
For `O=C1C2=C(C(=O)c3c(O)cccc31)C(c1ccco1)c1sc(=O)[nH]c1S2` (centres undefined), in that order: 2.01 µM and 6.59 µM.
For `Cc1nc2cncc(C#Cc3cncc(C(=O)Nc4ccc(CN5CCN(C)CC5)c(C(F)(F)F)c4)c3)c2nc1C`, in that order: 0.949 µM and 7.34 µM.
As for `COc1ccc(Nc2ncccc2/C=C/C(=O)c2cc(OC)c(OC)c(OC)c2)cc1`, the GI50 is 1.15 µM and the TGI was found to be 2.44 µM.
On to `COc1cc([C@@H]2c3cc4c(cc3C(Br)[C@H]3COC(=O)[C@H]23)OCO4)cc(OC)c1OC` (some centres undefined), for which the GI50 is 0.175 µM and the TGI was determined as 0.625 µM.
For `Cc1ccccc1S(=O)(=O)N1[C@H](c2ccc(Cl)cc2)C(C(=O)N[C@@H](Cc2ccccc2)C(N)=O)=C[C@@H]1C(C)(C)C`, in that order: 4.13 µM and 12.5 µM.
`CCCCCCOc1ccc(/C=N/NC(N)=S)cc1`: the GI50 was 6.39 µM and the TGI was 32.7 µM.
For `NS(=O)(=O)c1ccc(C2C3=C(CCCC3=O)OC3=C2C(=O)c2ccccc2C3=O)cc1` (centres undefined), in that order: 0.231 µM and 0.671 µM.
For `CCOC(=O)c1cc2c(n1Cc1cc(OC)cc(OC)c1)-c1oncc1CCC2`, in that order: 0.0474 µM and over 100 µM.
The corresponding values for `CC1=C(C(=O)Nc2ccc3[nH]ncc3c2)C(c2ccc(F)cc2)NC(=O)N1` (centres undefined) are over 25 µM and over 25 µM.
`CCOC(=O)c1c2c(n3ccc(NC(=O)OC(C)(C)C)cc13)C(=O)c1ncccc1C2=O`: the GI50 was 1.33 µM and the TGI was found to be 3.82 µM.
For `CCCCCCCCCCCCCC[P+](CCCCCC)(CCCCCC)CCCCCC`, in that order: 0.0366 µM and 0.175 µM.
The corresponding values for `CCCCCCCCCCCCCCCC(=O)OCC1OC(n2cnc3c(=S)nc(N)[nH]c32)C(OC(=O)CCCCCCCCCCCCCCC)C1OC(=O)CCCCCCCCCCCCCCC` (centres undefined) are 1.39 µM and over 50 µM.
With `CCN(CC)CCOc1ccc(Nc2ncc3cc(-c4c(Cl)cccc4Cl)c(=O)n(CCOC)c3n2)cc1`, the GI50 was 1.26 µM and the TGI is 3.99 µM.
The corresponding values for `OCc1cccc(-c2ccc3ncc(-c4nc(NC5CC5)ncc4F)n3c2)c1` are 0.25 µM and 0.603 µM.
Take `Fc1ccc(C2CC(c3cccc(Nc4ccncc4)c3)=NN2c2cc(Cl)cc(Cl)c2)cc1` (centres undefined): the GI50 was 1.76 µM and the TGI turned out to be 3.72 µM.
For the compound `COc1cc2c(c(OC)c1OC)-c1ccc(NNC(=S)N(Cc3cccc(C[N+](Cc4cccc(CNC56CC7CC(CC(C7)C5)C6)c4)(Cc4cccc(CNC56CC7CC(CC(C7)C5)C6)c4)Cc4cccc(CN(C(=S)NNc5ccc6c(cc5=O)[C@@H](NC(C)=O)CCc5cc(OC)c(OC)c(OC)c5-6)C56CC7CC(CC(C7)C5)C6)c4)c3)C34CC5CC(CC(C5)C3)C4)c(=O)cc1[C@@H](NC(C)=O)CC2` (some centres undefined), the GI50 is 0.657 µM and the TGI amounted to 1.75 µM.
For `O=C(CCCCCCNC(=O)C(O)(O)C(F)(F)F)Nc1ncc(-c2ccc(Br)cc2)s1`, in that order: 0.752 µM and 5.35 µM.
The corresponding values for `COc1cc(C(=O)/C=C/c2c(-c3ccc(F)cc3)nc3sc(C)cn23)cc(OC)c1OC` are 2.38 µM and over 100 µM.
For `C=C1C(=O)O[C@H]2[C@H]1CC/C(CNS(=O)(=O)c1ccc3ccccc3c1)=C\CC[C@@]1(C)O[C@@H]21`, in that order: 0.363 µM and 1.62 µM.
Take `N#Cc1ccc(/C=N/NC(=O)c2[nH]c3ccc(Br)cc3c2-c2ccccc2)s1`: the GI50 is 0.292 µM and the TGI is 10.3 µM.
Take `O=c1[nH]cnc2c1nnn2C1OC(CO)C(O)C1O` (centres undefined): the GI50 was 0.577 µM and the TGI was 22 µM.
For `COC(=O)Nc1nc2ccc(Oc3ccc(NC(=O)Nc4cccc(Br)c4)cc3)cc2[nH]1`, in that order: 1.29 µM and 6.28 µM.
`O=C1c2ccccc2-c2nccc3cc(Cl)nc1c23`: the GI50 is 0.23 µM and the TGI turned out to be 0.602 µM.
The corresponding values for `Cc1[nH]c(C(=O)Nc2ccc(C(=O)N3CCNCC3)cc2OC(C)C)c(Cl)c1Cl` are 1.67 µM and 3.18 µM.
For `COc1ccc(-c2nsc3c2NC(=O)CC3c2ccc3c(c2)OCO3)cc1` (centres undefined), the GI50 was 0.612 µM and the TGI is 25.9 µM.
For `Cn1c(=O)c(Oc2cccc(F)c2)cc2cnc(NC3CCOCC3)nc21`, in that order: over 25 µM and over 25 µM.
For `N#Cc1c2ccccc2c2n1-c1ccccc1OC(c1ccccc1)C2=O` (centres undefined), in that order: 3.26 µM and 13.1 µM.
The corresponding values for `N#Cc1cccc(C(=O)c2cnn(-c3ccc(F)cc3)c2N)c1` are over 25 µM and over 25 µM.
In the case of `CC/C=C\C/C=C\C[C@H](O)C/C=C1/C(=O)C=C[C@H]1C/C=C\CCC(=O)OC`, the GI50 was 1.56 µM and the TGI was found to be 4.74 µM.
For `COc1ccc(C2=CC(c3cc(OC)c(OC)c(OC)c3)NC(=O)N2)cc1OC` (centres undefined), in that order: 3.21 µM and 15.1 µM.
For `CCc1ccc(-c2ccc(=O)n(-c3ccc(S(N)(=O)=O)cc3)n2)cc1`, in that order: 3.18 µM and over 100 µM.
Turning to `CCN(CC)c1ccc(N=C2C=C(C(=O)Nc3ccc(S(C)(=O)=O)cc3)C(=O)c3ccccc32)c(C)c1`, the GI50 is over 100 µM and the TGI was over 100 µM.
As to `CSc1ccc(-c2cc(-c3ccc(NC(=O)CCCN4CCCC4)cc3)nc(-c3ccc(NC(=O)CCCN4CCCC4)cc3)c2)cc1`, the GI50 is 1.56 µM and the TGI is 3.03 µM.
The corresponding values for `O=S1(=O)N(Cc2ccccc2)[C@@H](Cc2ccccc2)C2O[C@H]2[C@H](Cc2ccccc2)N1Cc1ccccc1` (some centres undefined) are 0.274 µM and over 7.5 µM.
For `COc1cc2c(cc1OCCCOC1=C=C=C(c3ccc4c(c3)c3cc(-c5ccc(OCCCOc6cc7c(cc6OC)C(=O)N6CCC[C@H]6C=N7)cc5)ccc3n4S(=O)(=O)c3ccc(C)cc3)C=C1)N=C[C@@H]1CCCN1C2=O`, in that order: 1.04 µM and 3.04 µM.
For `O=C(Nc1ncc(Cc2ccccc2)s1)c1ccc2c(c1)OCCCO2`, the GI50 is 0.413 µM and the TGI was over 100 µM.
The corresponding values for `COc1ccc(C(O)c2cc3c(N)c(C(=O)Nc4cccc(Cl)c4C)sc3nc2C)cc1` (centres undefined) are 0.742 µM and 1.48 µM.
The corresponding values for `Nc1nc2c(c3ncccc13)C(c1ccc(Cl)c(Cl)c1)Cc1ncccc1-2` (centres undefined) are 3.25 µM and 11.2 µM.
For `COc1ccc(Nc2ccnc(NCCNc3ccnc4cc(Cl)ccc34)n2)cc1`, in that order: 0.997 µM and 3.22 µM.
`CNC(=O)c1c(NC(=O)c2cccc(C(F)(F)F)c2)sc2c1CCC(=O)C2`: the GI50 was 0.396 µM and the TGI is 2.3 µM.
For `CNc1nc(C)c(-c2nc(Nc3cccc(S(N)(=O)=O)c3)ncc2F)s1`, in that order: 0.0354 µM and 0.116 µM.
For `C[C@@H]1COCCN1c1nc(-c2cnc(N)cc2C(F)F)nc(N2[C@H](C)COC[C@@H]2C)n1`, in that order: 0.185 µM and 1.62 µM.
With `Nc1c(C(=O)c2cccc(-c3ccc[n+]([O-])c3)c2)cnn1-c1ccc(F)cc1F`, the GI50 was over 25 µM and the TGI was over 25 µM.
Regarding `c1cc(C2CCCCC2)ccc1OCCCCCCN1CCNCC1`, the GI50 was 1.91 µM and the TGI was 3.67 µM.
For `C=C1C(=O)O[C@H]2[C@H]1CC/C(CNC(=O)/C=C/c1cccc(OC)c1)=C\CC[C@@]1(C)O[C@@H]21`, in that order: 0.485 µM and 2.13 µM.

For the origin of these results see PubChem BioAssay (NCI).
